Legend:
EPO = assay: qRT-PCR of EPO expression in Hep3B cells; assay type: cell-based, human
Procedure: (§1) 4. Methods for cell studies […]
(§2) in Minimum Essential Medium (MEM, GIBCO) with 10% fetal bovine serum (FBS, BI), 100 U/mL penicillin and 100 μg/mL streptomycin (1 × P/S, NCM Biotech). […]
(§3) and 100 μg/mL streptomycin (1 × P/S, NCM Biotech).
(§4) Quantitative PCR Analysis of Gene Expression […]
(§5) treated with vehicle (DMSO) or an inhibitor (at the concentrations indicated) for 12 h. Total RNA was isolated from cells and tissues using Trizol regents (Vazyme, China). 1 μg RNA was used for reverse transcription using HiScript III RT SuperMix for qPCR (Vazyme, China). cDNAs were amplified in a ChamQ Universal SYBR qPCR Master Mix (Vazyme, China). Quantitative PCR (qPCR) was performed on […]
(§6) a ABI QuantStudio 3 system.
(§7) The relative amount of mRNA was calculated after
(§8) 3T3-L1 derived adipocytes. […]

[1] = system: 3T3-L1 derived adipocytes; assay: Cellular triglyceride (TG) colorimetric assay; assay type: cell-based; details: 100 μM
Procedure: as §1, §2
and 100 μg/mL streptomycin (1 × P/S, NCM Biotech). […]
3T3-L1 derived adipocytes.
10% newborn calf serum (NCS, GIBCO), 100 U/mL penicillin and 100 μg/mL streptomycin (1 × P/S, NCM […]
The 3T3-L1 cells were strictly subcultured before they
Subcultures of 3T3 -L1 cells were routinely cultured in DMEM medium containing 10% NCS for two days, and then the cells were cultured in DMEM containing 10% FBS, 0.5 mM 3 -isobutyl-1-methylxanthine, 1 μM dexamethasone, 10 μg/mL insulin and 2 μM rosiglitazone for another two days. Subsequently, the cells were cultured in DMEM containing 10% FBS and 10 μg/mL insulin for two days. After these procedures, the cells were maintained in […]
To investigate the effect of inhibitors on adipocytes, 3T3-L1-derived adipocytes were treated with vehicle (DMSO) or with an inhibitor (at the concentrations indicated) for 48 h. […]
Cellular TG level assay for 3T3 -L1 derived adipocytes.
The 3T3-L1-derived adipocytes were washed with PBS, then the cells were lysed. And then, the cellular TG level was determined by using a cellular triglyceride assay kit (Applygen, China).
Oil Red O staining for 3T3-L1 derived adipocytes.

CA9 = assay: qRT-PCR of CA9 expression in Hep3B cells; assay type: cell-based, human
Procedure: as §1, §2, §3, §4, §5, §6, §7, §8

SLC2A1 = assay: qRT-PCR of SLC2A1 expression in Hep3B cells; assay type: cell-based, human
Procedure: as §1, §2, §3, §4, §5, §6, §7, §8

EGLN3 [2] = assay: qRT-PCR of EGLN3 expression in 786-O cells; assay type: cell-based; details: VHL-deficient 786-O cells
Procedure: as §1, §2, §3, §4, §5, §6, §7, §8

EGLN3 [3] = assay: qRT-PCR of EGLN3 expression in Hep3B cells; assay type: cell-based, human
Procedure: as §1, §2, §3, §4, §5, §6, §7, §8

Row | Structure (SMILES) | melting point | also measured
1 | O=C(O)Cc1cs/c(=N\C(=O)CNC(=O)c2ccccc2)n1O (hydrate or solvate) [compound 16] | 181 to 183 °C | –
2 | O=C(O)Cc1cs/c(=N\C(=O)CCNS(=O)(=O)c2ccccc2)n1O (hydrate or solvate) [compound 20] | 178 to 180 °C | –
3 | O=C(O)Cc1cs/c(=N\C(=O)C2CCCN2S(=O)(=O)c2ccccc2)n1O (centres unmarked) (hydrate or solvate) [compound 28] | > 190 °C (dec.) | –
4 | CC1(C(=O)/N=c2\scc(CC(=O)O)n2O)CCN(S(=O)(=O)c2ccccc2)C1 (centres unmarked) (hydrate or solvate) [compound 29] | 158 to 161 °C | –
5 | O=C(O)Cc1csc(=NC(=O)C2CCN(S(=O)(=O)c3cccc(Cl)c3)C2)n1O (centres unmarked) (hydrate or solvate) [compound 34] | 178 to 182 °C | –
6 | O=C(O)Cc1csc(=NC(=O)C2CCN(S(=O)(=O)c3ccc(Cl)cc3)C2)n1O (centres unmarked) (hydrate or solvate) [compound 35] | 195 to 197 °C | –
7 | COc1ccc(S(=O)(=O)N2CCC(C(=O)N=c3scc(CC(=O)O)n3O)C2)cc1 (centres unmarked) (hydrate or solvate) [compound 36] | 180 to 183 °C | –
8 | O=C(O)Cc1csc(=NC(=O)C2CCN(S(=O)(=O)c3ccc(C(F)(F)F)cc3)C2)n1O (centres unmarked) (hydrate or solvate) [compound 37] | 183 to 185 °C | –
9 | O=C(O)Cc1csc(=NC(=O)C2CCN(S(=O)(=O)c3ccc4ccccc4c3)C2)n1O (centres unmarked) (hydrate or solvate) [compound 40] | 181 to 184 °C | –
10 | O=C(O)Cc1csc(=NC(=O)C2CCN(S(=O)(=O)c3cccs3)C2)n1O (centres unmarked) (hydrate or solvate) [compound 41] | 178 to 180 °C | –
11 | COC(=O)C(=O)N[C@H](Cc1ccccc1)C(=O)OC [DM-NOFD, dimethyl N-oxalyl-D-phenylalanine] | – | upregulation of EPO (EPO; qPCR, relative to DMSO): no response; EPO levels in combination with FG-4592 compared with FG-4592 alone (EPO; with FG-4592, to a lesser extent than CA9): increase; effect on TG levels [1]: no effect; upregulation of CA9 (CA9; qPCR, relative to DMSO): no response; CA9 levels in combination with FG-4592 compared with FG-4592 alone (CA9; with FG-4592): increase; increase of SLC2A1 levels (SLC2A1; qPCR, relative to DMSO): ~1.3 fold; SLC2A1 gene expression in combination with FG-4592 (SLC2A1; with FG-4592): no synergistic effect; effect on EGLN3 gene expression (EGLN3 [2]): upregulation of EGLN3; increase of EGLN3 expression relative to DMSO (EGLN3 [3]; 50 μM, 12 h, qRT-PCR): ~1.8 fold; EGLN3 upregulation on co-administration with FG-4592 relative to compound alone (EGLN3 [3]; with FG-4592): no additional effect
